Measurements reported in US20210000730A1, “COMPOSITION COMPRISING OPTICAL CLEARING AGENT FOR IMPROVING OPTICAL CHARACTERISTIC OF SKIN” (LG HOUSEHOLD & HEALTH CARE LTD., priority 2018, published 2021).
“Also recorded” adds a separate entry of the source.

System: corneum of subjects collected using corneum tape
Experiment: Reduction of light scattering of corneum tape, dark field image of polarization microscope with image analysis
Conditions: washed and dried after 3~4 hours
From the text: The bright field image is a basic observation method of simply magnifying a sample without a unique optical unit and it is suitable for confirming the structure of the sample, but it is not appropriate for confirming the scattering light. The dark field image is an observation method of inducing the direct illumination light reaching the sample out, and collecting only the scattering light from the sample with objective lens, and the light from the upper light source of the microscope is scattered from the keratinocytes and appears white, and as the scattering decreases, it appears black.
The numerical value of the analyzed image is expressed in the range of 30-200, and the more the white image is, the higher the value is. The average value of the image numerical value of the unapplied site and the average value of the image numerical value of the applied site were obtained, and the reduction ratio of the image numerical value of the applied site compared to the unapplied site was calculated as a percentage.
On the other hand, to compare the effect of the present disclosure by relative values at the same concentration, the solution of urea, glycerol, sucrose, sodium lactate, polyethylene glycol 400 and hexanediol of the same concentration (10% by weight) was prepared and compared and evaluated (FIG. 3a). […]

`NC(N)=O` [urea] was tested, and the “reduction of light scattering compared to the control group (water)” value (10% of urea, 100 ul applied) was 17% and the “light scattering of corneum after treatment, washing and drying (photograph, dark field image)” value (urea applied to corneum tape, control water) was “the scattering was reduced and it appeared transparent; also recorded: corneum scattering was reduced and appeared black”.
